# Legend:
# [1] = tested on: participants with type 2 diabetes; conditions: in vivo
# Protocol: Adverse events (AEs) were recorded from the time of the participant signing informed consent through to the end of follow-up and were regarded as treatment-emergent adverse events (TEAEs) if beginning (or increasing in severity) after the first study dose and no later than the end of follow-up.
# [2] = cited from earlier work
# From the text: Semaglutide (Novo Nordisk, Bagsværd, Denmark) is a GLP-1 analogue in development for the once-weekly treatment of type 2 diabetes. It has 94% structural homology to native human GLP-1, and is based on the same […] technology as liraglutide. Important structural modifications make semaglutide more resistant to degradation by dipeptidyl peptidase-4 and improve binding to albumin [16]. These modifications result in a t ½ of approximately 1 week, making semaglutide appropriate for once-weekly s.c. administration, with a fully retained potency.
# [3] = Steady-state pharmacokinetics of semaglutide; conditions: 1.0 mg s.c. at steady state; estimated in 34 participants; geometric mean (CV, %)
# From the text: Blood samples were drawn throughout the trial to assess PK (trough values).
# time–concentration curve during a dosing interval), calculated using standard non-
# compartmental methods using the linear trapezoidal method on the observed concentrations
# using actual time points; maximum concentration (Cmax), derived as the maximum of all
# half-life (t½), calculated as log2/λz, where λz was estimated by log-linear regression on the
compound,measurement,setting,value
"CC[C@H](C)[C@H](NC(=O)[C@H](Cc1ccccc1)NC(=O)[C@H](CCC(=O)O)NC(=O)[C@H](CCCCNC(=O)COCCOCCNC(=O)COCCOCCNC(=O)CC[C@H](NC(=O)CCCCCCCCCCCCCCCCC(=O)O)C(=O)O)NC(=O)[C@H](C)NC(=O)[C@H](C)NC(=O)[C@H](CCC(N)=O)NC(=O)CNC(=O)[C@H](CCC(=O)O)NC(=O)[C@H](CC(C)C)NC(=O)[C@H](Cc1ccc(O)cc1)NC(=O)[C@H](CO)NC(=O)[C@H](CO)NC(=O)[C@@H](NC(=O)[C@H](CC(=O)O)NC(=O)[C@H](CO)NC(=O)[C@@H](NC(=O)[C@H](Cc1ccccc1)NC(=O)[C@@H](NC(=O)CNC(=O)[C@H](CCC(=O)O)NC(=O)C(C)(C)NC(=O)[C@@H](N)Cc1cnc[nH]1)[C@@H](C)O)[C@@H](C)O)C(C)C)C(=O)N[C@@H](C)C(=O)N[C@@H](Cc1c[nH]c2ccccc12)C(=O)N[C@@H](CC(C)C)C(=O)N[C@H](C(=O)N[C@@H](CCCNC(=N)N)C(=O)NCC(=O)N[C@@H](CCCNC(=N)N)C(=O)NCC(=O)O)C(C)C [semaglutide, Semaglutide]",Anti-semaglutide antibodies,[1],no anti-
same,"Any TEAE, number of participants with events (%)",[1],28 (75.7)
same,"Gastrointestinal disorders, number of participants with events (%)",[1],19 (51.4)
same,"Injury, poisoning and procedural complications, number of participants with events (%)",[1],1 (2.7)
same,"Metabolism and nutrition disorders, number of participants with events (%)",[1],4 (10.8)
same,"Musculoskeletal and connective disorders, number of participants with events (%)",[1],1 (2.7)
same,"Nervous system disorders, number of participants with events (%)",[1],5 (13.5)
same,Participants with TEAEs,[1],75.7%
same,Participants with diarrhoea,[1],10.8%
same,Participants with gastrointestinal TEAEs,[1],51.4%
same,Participants with nausea,[1],18.9%
same,Participants with vomiting,[1],16.2%
same,"Serious TEAE, number of participants with events (%)",[1],2 (5.4)
same,"Severe TEAE, number of participants with events (%)",[1],1 (2.7)
same,Systolic blood pressure,[1],slightly decreased
same,"TEAE leading to withdrawal, number of participants with events (%)",[1],1 (2.7)
same,"Vascular disorders, number of participants with events (%)",[1],3 (8.1)
same,t½,[2],approximately 1 week
same,Vz/F,[3],11.2 (18.6) l
